“Also recorded” adds a separate entry of the source.
Experiment: Gravimetric moisture sorption (GMS)
Type: physicochemical
Details: 25±0.1° C.
Protocol: Moisture sorption isotherms were recorded with an SPSx-1 μ moisture sorption analyzer (ProUmid, Ulm). The measurement cycle was started at ambient relative humidity (RH) of 30%. RH was then decreased to 5% in 5% steps, followed by a further decrease to 3% and to 0%. […] Finally, RH was increased to ambient relative humidity of 30% in 5% steps.
The time per step was set to a minimum of 2 hours and a maximum of 6 hours. If an equilibrium condition with a constant mass of ±0.01% within 1 hour was reached before the maximum time for all examined samples the sequential humidity step was applied before the maximum time of 6 hours. If no equilibrium was achieved the consecutive humidity step was applied after the maximum time of 6 hours. The temperature was 25±0.1° C.
Therefore, flibanserin hydrate of the present invention can be assigned as being non-hygroscopic.

hysteresis between sorption and desorption isotherms (GMS, 0 to 95% RH): no significant hysteresis
physical form after the GMS experiment (PXRD) (after sorption/desorption cycle 0-95-0% RH): same PXRD
mass difference between 0 and 95% RH (equilibrium mass change, GMS) (sorption/desorption cycle 0-95% RH): 0.2 weight %
SMILES: O=c1[nH]c2ccccc2n1CCN1CCN(c2cccc(C(F)(F)F)c2)CC1 [flibanserin hydrate]
hygroscopicity / water uptake or loss (in words) (GMS, 0 to 95% RH, hydrate): neither significant water uptake nor loss; also recorded: non-hygroscopic
